Test system: adults with plaque psoriasis
Experiment: Long-term open-label extension study (PSOARING 3): Physician Global Assessment (PGA), treatment episodes, treatment success, remittive effect
Assay type: in vivo, human
Description: This extension study consisted of up to 40 weeks of treatment and a 4 week, safety follow up period.
At the completion of the Week 12 visit of the DB, pivotal Phase 3 study, eligibility of the subjects opting to enroll in this extension study was confirmed. Study visits during the treatment period for all subjects occurred every 4 weeks (±3 days). A phone call was performed at Week 2 (Day 15). Unscheduled visits may have occurred, as needed. Subjects who withdrew from this study before Week 40 returned to the study center for an Early Termination visit. The total duration of this extension study participation was 44 weeks. Subjects in this study were treated as follows based on their PGA score from the Week 12 visit in the DB, pivotal Phase 3 study (Study DMVT 505 3001 or Study DMVT 505 3002).
The PGA was used to assess the primary efficacy endpoint in this study. The PGA is a clinical tool for assessing the current state/severity of a subject's psoriasis at a given time point. It is a static, 5 point, morphological assessment of overall disease severity, as determined by the Investigator, using the clinical characteristics of erythema, scaling, and plaque thickness/elevation as guidelines; higher PGA scores represent more severe disease (0=clear, 1=almost clear, 2=mild, 3=moderate, and 4=severe). The BSA affected was not considered in scoring of the PGA. Variations of the PGA are frequently used in clinical studies because it is a simple assessment, similar to those used in clinical practice. The PGA was performed first, prior to the % BSA, PASI, and LTS assessments.
Time to event parameters, such as the time from treatment success to subsequent worsening (PGA≥2) or duration of treatment episode, were summarized by the Kaplan Meier product limit method using OC.

[1] = Week 40, LOCF, Tapinarof (Pivotal) group
[2] = Week 40, OC, Vehicle (Pivotal) group
[3] = Week 40 LOCF, Tapinarof (Pivotal)
[4] = Week 40 LOCF, Vehicle (Pivotal)
[5] = Week 40 OC, Tapinarof (Pivotal)

## CC(C)c1c(O)cc(/C=C/c2ccccc2)cc1O [Tapinarof, 3,5-Dihydroxy-4-isopropyl-trans-stilbene]
Week 16 OC, Vehicle (Pivotal)
  PGA Change from Baseline: Improved by 4: 1 (0.5) n (%)
  PGA Change from Baseline: No Change: 59 (28.2) n (%)
  PGA Change from Baseline: Worsened by 1: 6 (2.9) n (%)
  PGA Change from Baseline: Worsened by 2: 2 (1.0) n (%)
  PGA Change from Baseline: Worsened by 3: 0 (0.0) n (%)
  PGA Change from Baseline: Worsened by 4: 0 (0.0) n (%)
[1]
  Subjects with PGA=0: 15.4%
  Subjects with PGA=1: 30.0%
Week 40, LOCF, Vehicle (Pivotal) group
  Subjects with PGA=1: 27.4%
Week 40, OC, Tapinarof (Pivotal) group
  Subjects with PGA=1: 30.1%
[2]
  Subjects with PGA=0: 23.9%
  Subjects with PGA=1: 31.9%
Week 40 LOCF, Overall
  PGA 0 - Clear: 118 (15.8) n (%)
  PGA 1 - Almost Clear: 217 (29.1) n (%)
  PGA 2 - Mild: 253 (34.0) n (%)
  PGA 3 - Moderate: 146 (19.6) n (%)
  PGA 4 - Severe: 11 (1.5) n (%)
  PGA Change from Baseline: Improved by 1: 194 (26.1) n (%)
  PGA Change from Baseline: Improved by 2: 88 (11.9) n (%)
  PGA Change from Baseline: Improved by 3: 27 (3.6) n (%)
  PGA Change from Baseline: Improved by 4: 2 (0.3) n (%)
  PGA Change from Baseline: No Change: 282 (38.0) n (%)
  PGA Change from Baseline: Worsened by 2: 37 (5.0) n (%)
  PGA Change from Baseline: Worsened by 3: 4 (0.5) n (%)
  PGA Change from Baseline: Worsened by 4: 0 (0.0) n (%)
[3]
  PGA 0 - Clear: 76 (15.4) n (%)
  PGA 1 - Almost Clear: 148 (30.0) n (%)
  PGA 2 - Mild: 171 (34.7) n (%)
  PGA 3 - Moderate: 91 (18.5) n (%)
  PGA 4 - Severe: 7 (1.4) n (%)
  PGA Change from Baseline: Improved by 1: 110 (22.4) n (%)
  PGA Change from Baseline: Improved by 2: 31 (6.3) n (%)
  PGA Change from Baseline: Improved by 3: 5 (1.0) n (%)
  PGA Change from Baseline: Improved by 4: 1 (0.2) n (%)
  PGA Change from Baseline: No Change: 211 (43.0) n (%)
  PGA Change from Baseline: Worsened by 1: 95 (19.3) n (%)
  PGA Change from Baseline: Worsened by 2: 34 (6.9) n (%)
  PGA Change from Baseline: Worsened by 3: 4 (0.8) n (%)
  PGA Change from Baseline: Worsened by 4: 0 (0.0) n (%)
[4]
  PGA 0 - Clear: 42 (16.7) n (%)
  PGA 1 - Almost Clear: 69 (27.4) n (%)
  PGA 2 - Mild: 82 (32.5) n (%)
  PGA 3 - Moderate: 55 (21.8) n (%)
  PGA 4 - Severe: 4 (1.6) n (%)
  PGA Change from Baseline: Improved by 1: 84 (33.5) n (%)
  PGA Change from Baseline: Improved by 2: 57 (22.7) n (%)
  PGA Change from Baseline: Improved by 3: 22 (8.8) n (%)
  PGA Change from Baseline: Improved by 4: 1 (0.4) n (%)
  PGA Change from Baseline: No Change: 71 (28.3) n (%)
  PGA Change from Baseline: Worsened by 1: 13 (5.2) n (%)
  PGA Change from Baseline: Worsened by 2: 3 (1.2) n (%)
  PGA Change from Baseline: Worsened by 3: 0 (0.0) n (%)
  PGA Change from Baseline: Worsened by 4: 0 (0.0) n (%)
Week 40 OC, Overall
  PGA 0 - Clear: 68 (19.5) n (%)
  PGA 1 - Almost Clear: 107 (30.7) n (%)
  PGA 2 - Mild: 116 (33.2) n (%)
  PGA 3 - Moderate: 57 (16.3) n (%)
  PGA 4 - Severe: 1 (0.3) n (%)
  PGA Change from Baseline: Improved by 1: 99 (28.4) n (%)
  PGA Change from Baseline: Improved by 2: 46 (13.2) n (%)
  PGA Change from Baseline: Improved by 3: 19 (5.4) n (%)
  PGA Change from Baseline: Improved by 4: 1 (0.3) n (%)
  PGA Change from Baseline: No Change: 105 (30.1) n (%)
  PGA Change from Baseline: Worsened by 1: 55 (15.8) n (%)
  PGA Change from Baseline: Worsened by 2: 21 (6.0) n (%)
  PGA Change from Baseline: Worsened by 3: 3 (0.9) n (%)
  PGA Change from Baseline: Worsened by 4: 0 (0.0) n (%)
[5]
  PGA 0 - Clear: 41 (17.4) n (%)
  PGA 1 - Almost Clear: 71 (30.1) n (%)
  PGA 2 - Mild: 81 (34.3) n (%)
  PGA 3 - Moderate: 42 (17.8) n (%)
  PGA 4 - Severe: 1 (0.4) n (%)
  PGA Change from Baseline: Improved by 1: 58 (24.6) n (%)
  PGA Change from Baseline: Improved by 2: 19 (8.1) n (%)
  PGA Change from Baseline: Improved by 3: 2 (0.8) n (%)
  PGA Change from Baseline: Improved by 4: 0 (0.0) n (%)
  PGA Change from Baseline: No Change: 86 (36.4) n (%)
  PGA Change from Baseline: Worsened by 1: 48 (20.3) n (%)
  PGA Change from Baseline: Worsened by 2: 20 (8.5) n (%)
  PGA Change from Baseline: Worsened by 3: 3 (1.3) n (%)
  PGA Change from Baseline: Worsened by 4: 0 (0.0) n (%)
Week 40 OC, Vehicle (Pivotal)
  PGA 0 - Clear: 27 (23.9) n (%)
  PGA 1 - Almost Clear: 36 (31.9) n (%)

Reference: patent US20220395472A1 (Dermavant Sciences GmbH, priority 2021, published 2022)
